Here are results for 20 compounds from the supplement of paper PMC11368000.

Structures are written as SMILES. Bounds are passed on as bounds.

In the first assay the test system is 1434 (donor line of iPSC-derived cardiomyocytes). The experiment in a line: POD (EC05) for increase in Ca2+ transient decay-to-rise ratio (QT prolongation) vs vehicle; higher = less potent (higher point of departure). Particulars: exposure time: 90 min. The procedure:
(§1)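 Human iPSC-derived cardiomyocytes from 16 donors were exposed for 90 min at 37 °C to each PFAS at 0.1, 1, 10 and 100 µM in 0.5% DMSO, 384-well plates. Kinetic Ca2+ flux (FLIPR) and Hoechst nuclei counts were normalised to vehicle wells and fitted with a hierarchical Bayesian Hill model to give donor-specific PODs: EC05 for beat-rate increase or decrease and for decay-to-rise ratio increase (QT proxy), EC95 for peak-frequency loss (asystole), EC10 for total cell number loss. 0.03 µM is the lower bound.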
For `NC(=O)C(F)(F)C(F)(F)C(F)(F)C(F)(F)F` [Nonafluoropentanamide], the POD vs vehicle turned out to be 0.357 µM.

As for `NC(=O)C(F)(F)C(F)(F)C(F)(F)C(F)(F)C(N)=O` [Octafluoroadipamide], the POD vs vehicle is greater than 100 µM.

On to `O=C(O)C(F)(F)C(F)(F)C(F)(F)C(F)(F)C(=O)O` [Octafluoroadipic_acid], for which the POD vs vehicle is greater than 100 µM.

Turning to `O=C(O)C(F)(F)C(F)(F)C(F)(F)OC(F)(F)F` [Perfluoro(4-methoxybutanoic)_acid], the POD vs vehicle was greater than 100 µM.

For `O=C(O)C(F)(F)OC(F)(F)C(F)(F)OC(F)(F)C(F)(F)OC(F)(F)C(F)(F)C(F)(F)C(F)(F)F` [Perfluoro-3,6,9-trioxatridecanoic_acid], the POD vs vehicle is greater than 100 µM.

Regarding `O=C(O)C(F)(F)OC(F)(F)C(F)(F)OC(F)(F)F` [Perfluoro-3,6-dioxaheptanoic_acid], the POD vs vehicle was greater than 100 µM.

As for `O=C(O)C(F)(F)OC(F)(F)C(F)(F)OC(F)(F)C(=O)O` [Perfluoro-3,6-dioxaoctane-1,8-dioic_acid], the POD vs vehicle was greater than 100 µM.

Take `O=C(O)C(F)(F)C(F)(F)OC(F)(F)F` [Perfluoro-3-methoxypropanoic_acid]: the POD vs vehicle was greater than 100 µM.

Turning to `O=C(O)C(F)(F)C(F)(F)C(F)(F)OC(F)(C(F)(F)F)C(F)(F)F` [Perfluoro-4-isopropoxybutanoic_acid], the POD vs vehicle is greater than 100 µM.

Consider `O=S(=O)(O)C(F)(F)C(F)(F)C(F)(F)C(F)(F)F` [Perfluorobutanesulfonic_acid], for which the POD vs vehicle was greater than 100 µM.

Another assay has as its system 1535 (donor line of iPSC-derived cardiomyocytes). Described as above. As to conditions: exposure time: 90 min. As for the experimental part: as §1
Consider `O=S(=O)(O)CCC(F)(F)C(F)(F)C(F)(F)C(F)(F)C(F)(F)C(F)(F)C(F)(F)C(F)(F)F` [8:2 Fluorotelomer sulfonic acid], for which the POD vs vehicle is greater than 100 µM.

Take `O=C(O)C(F)(F)C(F)(F)C(F)(F)C(F)(F)C(F)(F)C(F)(F)C(F)(F)C(F)(F)Cl` [9-Chloro-perfluorononanoic_acid]: the POD vs vehicle is greater than 100 µM.

Consider `O=P(O)(O)CCC(F)(F)C(F)(F)C(F)(F)C(F)(F)C(F)(F)C(F)(F)C(F)(F)C(F)(F)F` [((Perfluorooctyl)ethyl)phosphonic_acid], for which the POD vs vehicle is greater than 100 µM.

For the compound `O=C([O-])C(F)(F)C(F)(F)C(F)(F)C(F)(F)C(F)(F)C(F)(F)C(F)(F)F.[NH4+]` [Ammonium_perfluorooctanoate], the POD vs vehicle was greater than 100 µM.

Take `OCC(F)(F)C(F)(F)C(F)(F)C(F)(F)C(F)(F)C(F)F` [Dodecafluoroheptanol]: the POD vs vehicle is greater than 100 µM.

On to `OCC(F)(F)OC(F)(F)C(F)(F)OC(F)(F)C(F)(F)OC(F)(F)F` [Fluorinated_triethylene_glycol_monomethyl_ether], for which the POD vs vehicle is greater than 100 µM.

In the case of `OCC(F)(F)C(F)(F)C(F)(F)F` [Heptafluorobutanol], the POD vs vehicle is greater than 100 µM.

For `NC(=O)C(F)(F)C(F)(F)C(F)(F)F` [Heptafluorobutyramide], the POD vs vehicle was greater than 100 µM.

Turning to `OCC(F)(F)C(F)(F)C(F)(F)CO` [Hexafluoroamylene_glycol], the POD vs vehicle is greater than 100 µM.

Turning to `COC(=O)C(F)(F)C(F)(F)OC(F)(C(F)(F)F)C(F)(F)OC(F)=C(F)F` (stereo not given) [Methyl_perfluoro(3-(1-ethenyloxypropan-2-yloxy)propanoate)], the POD vs vehicle was greater than 100 µM.

With `NC(=O)C(F)(F)C(F)(F)C(F)(F)C(F)(F)F` [Nonafluoropentanamide], the POD vs vehicle is greater than 100 µM.

For `NC(=O)C(F)(F)C(F)(F)C(F)(F)C(F)(F)C(N)=O` [Octafluoroadipamide], the POD vs vehicle was greater than 100 µM.

As for `O=C(O)C(F)(F)C(F)(F)C(F)(F)C(F)(F)C(=O)O` [Octafluoroadipic_acid], the POD vs vehicle is greater than 100 µM.

As to `O=C(O)C(F)(F)C(F)(F)C(F)(F)OC(F)(F)F` [Perfluoro(4-methoxybutanoic)_acid], the POD vs vehicle was greater than 100 µM.

For `O=C(O)C(F)(F)OC(F)(F)C(F)(F)OC(F)(F)C(F)(F)OC(F)(F)C(F)(F)C(F)(F)C(F)(F)F` [Perfluoro-3,6,9-trioxatridecanoic_acid], the POD vs vehicle was greater than 100 µM.

For `O=C(O)C(F)(F)OC(F)(F)C(F)(F)OC(F)(F)F` [Perfluoro-3,6-dioxaheptanoic_acid], the POD vs vehicle is greater than 100 µM.

`O=C(O)C(F)(F)OC(F)(F)C(F)(F)OC(F)(F)C(=O)O` [Perfluoro-3,6-dioxaoctane-1,8-dioic_acid]: the POD vs vehicle is greater than 100 µM.

Take `O=C(O)C(F)(F)C(F)(F)OC(F)(F)F` [Perfluoro-3-methoxypropanoic_acid]: the POD vs vehicle was greater than 100 µM.

`O=C(O)C(F)(F)C(F)(F)C(F)(F)OC(F)(C(F)(F)F)C(F)(F)F` [Perfluoro-4-isopropoxybutanoic_acid]: the POD vs vehicle is greater than 100 µM.

Turning to `O=S(=O)(O)C(F)(F)C(F)(F)C(F)(F)C(F)(F)F` [Perfluorobutanesulfonic_acid], the POD vs vehicle was greater than 100 µM.

A further assay deals with 1565 (donor line of iPSC-derived cardiomyocytes). The description is as above. Particulars: exposure time: 90 min. The procedure:
as §1
Regarding `O=S(=O)(O)CCC(F)(F)C(F)(F)C(F)(F)C(F)(F)C(F)(F)C(F)(F)C(F)(F)C(F)(F)F` [8:2 Fluorotelomer sulfonic acid], the POD vs vehicle is greater than 100 µM.

On to `O=C(O)C(F)(F)C(F)(F)C(F)(F)C(F)(F)C(F)(F)C(F)(F)C(F)(F)C(F)(F)Cl` [9-Chloro-perfluorononanoic_acid], for which the POD vs vehicle was greater than 100 µM.

Turning to `O=P(O)(O)CCC(F)(F)C(F)(F)C(F)(F)C(F)(F)C(F)(F)C(F)(F)C(F)(F)C(F)(F)F` [((Perfluorooctyl)ethyl)phosphonic_acid], the POD vs vehicle was greater than 100 µM.

With `O=C([O-])C(F)(F)C(F)(F)C(F)(F)C(F)(F)C(F)(F)C(F)(F)C(F)(F)F.[NH4+]` [Ammonium_perfluorooctanoate], the POD vs vehicle was greater than 100 µM.

On to `OCC(F)(F)C(F)(F)C(F)(F)C(F)(F)C(F)(F)C(F)F` [Dodecafluoroheptanol], for which the POD vs vehicle is greater than 100 µM.

`OCC(F)(F)OC(F)(F)C(F)(F)OC(F)(F)C(F)(F)OC(F)(F)F` [Fluorinated_triethylene_glycol_monomethyl_ether]: the POD vs vehicle is greater than 100 µM.

With `OCC(F)(F)C(F)(F)C(F)(F)F` [Heptafluorobutanol], the POD vs vehicle is greater than 100 µM.

In the case of `NC(=O)C(F)(F)C(F)(F)C(F)(F)F` [Heptafluorobutyramide], the POD vs vehicle was greater than 100 µM.

For `OCC(F)(F)C(F)(F)C(F)(F)CO` [Hexafluoroamylene_glycol], the POD vs vehicle was greater than 100 µM.

On to `COC(=O)C(F)(F)C(F)(F)OC(F)(C(F)(F)F)C(F)(F)OC(F)=C(F)F` (stereo not given) [Methyl_perfluoro(3-(1-ethenyloxypropan-2-yloxy)propanoate)], for which the POD vs vehicle is greater than 100 µM.

On to `NC(=O)C(F)(F)C(F)(F)C(F)(F)C(F)(F)F` [Nonafluoropentanamide], for which the POD vs vehicle is greater than 100 µM.

With `NC(=O)C(F)(F)C(F)(F)C(F)(F)C(F)(F)C(N)=O` [Octafluoroadipamide], the POD vs vehicle is greater than 100 µM.

With `O=C(O)C(F)(F)C(F)(F)C(F)(F)C(F)(F)C(=O)O` [Octafluoroadipic_acid], the POD vs vehicle was greater than 100 µM.

With `O=C(O)C(F)(F)C(F)(F)C(F)(F)OC(F)(F)F` [Perfluoro(4-methoxybutanoic)_acid], the POD vs vehicle was greater than 100 µM.

As to `O=C(O)C(F)(F)OC(F)(F)C(F)(F)OC(F)(F)C(F)(F)OC(F)(F)C(F)(F)C(F)(F)C(F)(F)F` [Perfluoro-3,6,9-trioxatridecanoic_acid], the POD vs vehicle was greater than 100 µM.

Take `O=C(O)C(F)(F)OC(F)(F)C(F)(F)OC(F)(F)F` [Perfluoro-3,6-dioxaheptanoic_acid]: the POD vs vehicle was greater than 100 µM.

Turning to `O=C(O)C(F)(F)OC(F)(F)C(F)(F)OC(F)(F)C(=O)O` [Perfluoro-3,6-dioxaoctane-1,8-dioic_acid], the POD vs vehicle was greater than 100 µM.

For the compound `O=C(O)C(F)(F)C(F)(F)OC(F)(F)F` [Perfluoro-3-methoxypropanoic_acid], the POD vs vehicle is greater than 100 µM.

In the case of `O=C(O)C(F)(F)C(F)(F)C(F)(F)OC(F)(C(F)(F)F)C(F)(F)F` [Perfluoro-4-isopropoxybutanoic_acid], the POD vs vehicle was greater than 100 µM.

For the compound `O=S(=O)(O)C(F)(F)C(F)(F)C(F)(F)C(F)(F)F` [Perfluorobutanesulfonic_acid], the POD vs vehicle is greater than 100 µM.
